Data taken from patent US20220380430A1, “Non-Transgenic Functional Rescue of Neuropeptides” (Worcester Polytechnic Institute, priority 2021, published 2022).
No end group written: not given here.

Tests used:
ins-6 lof worms = test: NaCl chemotaxis assay after rescue-by-feeding; format: in vivo, C. elegans; details: ins-6 mutants; 750 mM NaCl
Description: All animals were maintained on bacterial lawns of OP50 E. coli, at 20° C., on NGM agar plates until the start of experiments. Mutant or control animals were transferred onto lawns of DH5α E. coli expressing either scramble peptide or the rescue peptide-of-interest on NGM plates containing […] AMP and 1 mM IPTG. Animals were reared on the peptide-expressing lawns for at least 48 hours at 20° C. before assaying for rescue of mutant phenotype at the appropriate developmental stage.
A salt chemotaxis assay was performed as previously described in Leinwand, S. G. & Chalasani, S. H. Nature neuroscience 16, 1461-1467 (2013); Bargmann, C. I. & Horvitz, H. R. Neuron 7, 729-742 (1991) to test the functionality of ins-6 after rescue-by-feeding. Wild-type (N2) and ins-6 worms were fed either scramble or INS-6 peptide passing 4-6 L4 larval onto an NGM plate containing […] AMP and 1 mM IPTG with 75 μL of peptide OD600=1.0. These worms were grown at 20° C. for about 4 days until the progeny of the initial L4 worms were young adults.
The day prior to testing, a thin, 10 mL layer of agar was added to 10 cm petri dishes to generate a 10 cm Chemotaxis Plates (5 mM KPO4 (pH 6.0), 1 μM MgSO4, 1 μM CaCl2), 20 g/L agar, and 8 g/L Difco Nutrient Broth). To prepare the “high salt” plates, 750 mM NaCl was added prior to plate pouring. The high salt plate were stored at 4° C. for up to one month, while the Chemotaxis Plates were made one day prior to testing. To create the high and low salt plugs, the back end of a Pasteur pipette was used to punch a 5 mm plug out of each plate. These 2 plugs were placed on opposite edges of the plate. A 10 mm radius was be drawn around the location of the plugs (FIG. 1). Plates were stored, lightly covered, overnight at room temperature (˜20° C., <40% humidity). […]
Young adult hermaphrodites are tested in the Chemotaxis Assay with no more than three replicates per day, over a minimum of three days, with 100-200 worms/assay plate. The […] Chemotaxis Index (CI) was calculated as follows: […]

flp-3 lof males = test: Drop avoidance assay to ascr #8 after FLP-3 peptide rescue-by-feeding; format: in vivo, C. elegans; details: flp-3 lof males raised on peptide; 1 μM ascr #8; in words
Description: To identify which FLP-3 peptides are required for male avoidance of ascr #8, a peptide feeding approach https://www.nature.com/articles/s42003-021-02547-7-ref-CR59 was adopted, similar to RNAi feeding (FIG. 16A). Using Gateway Cloning technology, FLP-3 peptide coding sequences were inserted into a bacterial expression vector. As a control, first the FLP-3 peptides were tested that are still encoded in the ok3625 allele which are insufficient to drive the proper ascr #8 response in vivo: FLP-3-1 (SPLGTMRFamide) (SEQ ID NO: 10) and FLP-3-4 (NPLGTMRFamide) (SEQ ID NO: 11). Then flp-3 lof animals were reared on lawns of bacteria expressing the rescue constructs, and their progeny were assayed for avoidance (FIG. 16B-FIG. 16D).
Assays were performed as described previously in Chute, C. D. & Srinivasan, J. Semin. Cell Dev. Biol. 33, 18-24 (2014); Chute, C. D. et al. Nat. Commun. 10, 3186 (2019); and Hilliard, M. A. et al., EMBO J. 23, 1101-1111 (2004). Fifty to sixty L4 worms were segregated by sex and stored at 20° C. for 5 h to overnight to be assayed as young adults. One to four hours prior to the assay, the lids of unseeded plates were tilted to allow any excess moisture to evaporate off the plates. At the time of the assay, 10 or more animals were transferred onto each of the dried, unseeded plates. A drop of either water or 1 μM ascr #8 was placed on the tail of forward moving animals, and their response was scored as either an avoidance response, or no response. The total number of avoidances was divided by the total number of drops to generate an avoidance index for that plate. This was repeated for at least 10 plates over at least three different days.
SCRAMBLE control or FLP-3 peptide constructs were grown overnight in LB media containing […] ampicillin at 37° C. and diluted to an OD600 of 1.0 prior to seeding on NGM plates containing […] ampicillin and 1 mM IPTG. The 75 μL lawn was left to dry and grow overnight at room temperature before three L4 animals were placed on the plates. Males were selected for testing in the same manner as described above but were isolated onto plates also seeded with the same peptide on which they had been reared. Animals were then assayed using either the avoidance assay or single worm assay.

**Q.** What does the source list for “NSKLHRGGGRSRTSGSTGSMASHARGSPGLQ-NH2 [SCRAMBLE, scramble control peptide expressed in E. coli DH5α, negative control, reference compound]”?
**A.** Chemotaxis Index (ins-6 lof worms): less than 0.4; rescue of avoidance phenotype to ascr #8 (Avoidance Index) (flp-3 lof males): does not affect behavior
